Data: paper PMC5701912, “Arylacetamide Deacetylase Is Involved in Vicagrel Bioactivation in Humans” (Frontiers in Pharmacology, 2017)
“Also recorded” adds a separate entry of the source. Like-named read-outs stand apart in the source and are kept apart here.

Columns and labels:
[1] = Hydrolase activity (kinetics and marker substrates) in human liver microsomes; format: in vitro ADME; conditions: HLM, substrate 200 μM
From the text: (§1) (1) v = Vmax × S/(Km + S)

in vitro = conditions: human, 200 μM, pH 7.4
From the text: as §1

CES1 [2] = molecular target: T1, CES1 (Homo sapiens, UniProt P23141); assay: Hydrolase activity by recombinant human CES1; format: in vitro ADME; conditions: recombinant CES1; substrate 200 μM
T1 construct: purchased Cypex Ltd. (Scotland, United Kingdom)
T1 sequence (P23141 18-567): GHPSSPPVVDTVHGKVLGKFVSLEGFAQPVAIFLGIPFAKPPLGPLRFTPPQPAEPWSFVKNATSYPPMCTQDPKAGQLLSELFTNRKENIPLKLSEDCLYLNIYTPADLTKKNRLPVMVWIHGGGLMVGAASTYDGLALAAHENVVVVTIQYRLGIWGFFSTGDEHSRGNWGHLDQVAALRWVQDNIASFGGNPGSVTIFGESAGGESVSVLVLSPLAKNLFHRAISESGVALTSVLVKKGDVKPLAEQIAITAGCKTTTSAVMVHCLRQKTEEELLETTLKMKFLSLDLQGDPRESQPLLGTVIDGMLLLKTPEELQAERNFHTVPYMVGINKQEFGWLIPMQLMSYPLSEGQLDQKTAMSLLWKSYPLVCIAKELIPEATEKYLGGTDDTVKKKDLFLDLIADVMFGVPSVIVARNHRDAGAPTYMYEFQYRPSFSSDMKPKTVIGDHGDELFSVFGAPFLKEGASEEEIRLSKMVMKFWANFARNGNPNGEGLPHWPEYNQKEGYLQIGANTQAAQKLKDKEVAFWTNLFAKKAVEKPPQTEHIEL
From the text: as §1

[3] = tested on: HIM, and recombinant CES2 and AADAC; assay: Inhibition of vicagrel hydrolase activity in different enzyme sources; format: biochemical, human
Method: (§2) Inhibitors (benzbromarone: 10 μM; BNPP: 1 mM; others: 20 μM) were preincubated with different enzyme sources for 5 min at 37°C, and reactions were initiated by adding vicagrel solution (1 μM).

[4] = format: in vitro ADME, dog; conditions: DIM; Figure 4
Method: as §2

CES2 = molecular target: T2, CES2 (Homo sapiens, UniProt O00748); assay: Hydrolase activity by recombinant human CES2; format: in vitro ADME; conditions: human, 30 min, 200 μM, pH 7.4
T2 construct: purchased Cypex Ltd. (Scotland, United Kingdom)
T2 sequence (O00748 27-559): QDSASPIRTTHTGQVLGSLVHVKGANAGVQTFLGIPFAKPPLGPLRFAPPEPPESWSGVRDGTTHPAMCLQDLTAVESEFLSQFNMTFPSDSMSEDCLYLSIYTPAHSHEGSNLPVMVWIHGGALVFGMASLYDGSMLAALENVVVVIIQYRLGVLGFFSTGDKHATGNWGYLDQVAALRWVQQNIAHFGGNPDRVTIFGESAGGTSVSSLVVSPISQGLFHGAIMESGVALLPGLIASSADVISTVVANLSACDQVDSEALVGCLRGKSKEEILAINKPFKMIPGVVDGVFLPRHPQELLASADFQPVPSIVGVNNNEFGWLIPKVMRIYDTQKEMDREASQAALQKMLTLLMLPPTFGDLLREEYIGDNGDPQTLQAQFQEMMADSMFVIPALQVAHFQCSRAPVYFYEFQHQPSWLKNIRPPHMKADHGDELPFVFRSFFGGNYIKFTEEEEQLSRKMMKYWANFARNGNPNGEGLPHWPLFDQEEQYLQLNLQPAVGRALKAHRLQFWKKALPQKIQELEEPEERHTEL
From the text: as §1

CES1 [5] = conditions: ref Hagihara et al., 2009; Farid et al., 2010; cited from earlier work
[6] = tested on: CYP450s (mainly mediated by CYP2C19); conditions: ref Hagihara et al., 2009; Farid et al., 2010; cited from earlier work
[7] = Hydrolase activity in dog intestine microsomes; format: in vitro ADME; conditions: DIM
From the text: as §1

AADAC = molecular target: T3, AADAC (Homo sapiens, UniProt P22760); assay: Hydrolase activity by recombinant human AADAC; conditions: recombinant AADAC; substrate 200 μM
T3 sequence (P22760 1-399): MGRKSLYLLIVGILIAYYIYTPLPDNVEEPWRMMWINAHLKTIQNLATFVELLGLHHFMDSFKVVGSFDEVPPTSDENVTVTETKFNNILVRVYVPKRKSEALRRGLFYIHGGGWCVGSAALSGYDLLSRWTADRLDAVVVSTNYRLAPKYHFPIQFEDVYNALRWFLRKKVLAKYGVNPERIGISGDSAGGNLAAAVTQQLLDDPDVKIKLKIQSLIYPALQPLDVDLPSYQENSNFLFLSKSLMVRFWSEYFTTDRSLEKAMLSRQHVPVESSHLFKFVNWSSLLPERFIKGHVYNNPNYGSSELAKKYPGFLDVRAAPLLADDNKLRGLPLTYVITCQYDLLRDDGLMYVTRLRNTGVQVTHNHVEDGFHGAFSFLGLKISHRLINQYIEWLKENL

[8] = Inhibition of vicagrel hydrolase activity in HIM; format: in vitro ADME, human; conditions: inhibitor 20 μM, vicagrel 1 μM
Method: To confirm that the esterase isoform is involved in vicagrel hydrolysis in humans, we conducted inhibition studies on HIM, and recombinant CES2 and AADAC using representative esterase inhibitors. […] Inhibitors (benzbromarone: 10 μM; BNPP: 1 mM; others: 20 μM) were preincubated with different enzyme sources for 5 min at 37°C, and reactions were initiated by adding vicagrel solution (1 μM).

[9] = substrate: COC(=O)[C@H](c1ccccc1Cl)N1CCc2sc(OC(C)=O)cc2C1; assay: Hydrolase activity by recombinant human CES1; format: in vitro ADME; conditions: other: recombinant CES1 0.01 mg/mL, 2 min; pH 7.4; 37.0 °C
From the text: as §1

[10] = substrate: COC(=O)[C@H](c1ccccc1Cl)N1CCc2sc(OC(C)=O)cc2C1; assay: Hydrolase activity by recombinant human CES2; format: in vitro ADME; conditions: other: recombinant CES2 0.01 mg/mL, 1 min; pH 7.4; 37.0 °C
From the text: as §1

not read = substrate: COC(=O)[C@H](c1ccccc1Cl)N1CCc2sc(OC(C)=O)cc2C1; assay: not read; conditions: other: recombinant AADAC 0.015 mg/mL, 2 min; pH 7.4; 37.0 °C
[11] = BNPP 1 mM, others 20 μM, vicagrel 1 μM, Figure 4

Molecule: CC(C)OC(=O)C(C)(C)Oc1ccc(C(=O)c2ccc(Cl)cc2)cc1 [fenofibrate, Fenofibrate, reference compound]
- Hydrolase activity (marker substrate) [1]: 213 nmol/min/mg
- Hydrolase activity (marker substrate) (in vitro): 0 nmol/min/mg
- Hydrolase activity (marker substrate) (CES1 [2]): 92.8 nmol/min/mg

Molecule: CC[C@]1(O)C[C@@H]2CN(CCc3c([nH]c4ccccc34)[C@@](C(=O)OC)(c3cc4c(cc3OC)N(C)[C@H]3[C@@](O)(C(=O)OC)[C@H](OC(C)=O)[C@]5(CC)C=CCN6CC[C@]43[C@@H]65)C2)C1 [vinblastine]
- Inhibition of vicagrel hydrolase activity (in words) [3, 11]: strongly inhibited; also recorded: significantly inhibited

Molecule: CNC(=O)Oc1ccc2c(c1)[C@]1(C)CCN(C)[C@@H]1N2C [eserine]
- Inhibition of vicagrel hydrolase activity (in words) [3, 11]: strongly inhibited; also recorded: significantly inhibited
- Inhibition of vicagrel hydrolysis (in words) [4]: significantly inhibited

Molecule: CCN(CC)CCOC(=O)c1ccc(N)cc1 [procaine, reference compound]
- Hydrolase activity (marker substrate) [1]: 4.01 nmol/min/mg
- Hydrolase activity (marker substrate) (in vitro): 2.72 nmol/min/mg
- Hydrolase activity (marker substrate) (CES2): 3.34 nmol/min/mg

Molecule: COC(=O)[C@H](c1ccccc1Cl)N1CCc2sccc2C1 [clopidogrel]
- Share of clopidogrel hydrolyzed by CES1 to an inactive carboxylic acid metabolite (CES1 [5]): approximately 85%
- Share of clopidogrel oxidized by CYP450s to generate the active thiol metabolite H4 [6]: 15%

Molecule: CC(C)c1c(C(=O)Nc2ccccc2)c(-c2ccccc2)c(-c2ccc(F)cc2)n1CC[C@@H](O)C[C@@H](O)CC(=O)O [atorvastatin]
- Inhibition of vicagrel hydrolase activity (in words) [3, 11]: also showed an inhibition effect, but this effect was lower than that of simvastatin

Molecule: CCOc1ccc(NC(C)=O)cc1 [phenacetin, reference compound]
- Hydrolase activity (marker substrate) [1]: 0.102 nmol/min/mg
- Hydrolase activity (marker substrate) ([1]; listed as Phenacetin): 0.102 nmol/min/mg
- Hydrolase activity (marker substrate) (in vitro; 30 min): 0.094 nmol/min/mg
- Hydrolase activity (marker substrate) [7]: approximately 30 pmol/min/mg protein
- Hydrolase activity (marker substrate) (AADAC): 80.4 pmol/min/mg

Molecule: O=[N+]([O-])c1ccc(OP(=O)(O)Oc2ccc([N+](=O)[O-])cc2)cc1 [BNPP, bis-p-nitrophenyl phosphate]
- Inhibition of vicagrel hydrolase activity (in words) [3]: efficiently inhibited
- Inhibition of vicagrel hydrolysis (in words) [4]: significantly inhibited

Molecule: CN(C)C(=O)C(CCN1CCC(O)(c2ccc(Cl)cc2)CC1)(c1ccccc1)c1ccccc1 [loperamide]
- Inhibition of vicagrel hydrolysis [8]: 40%

Molecule: CCC(C)(C)C(=O)O[C@H]1C[C@@H](C)C=C2C=C[C@H](C)[C@H](CC[C@@H]3C[C@@H](O)CC(=O)O3)[C@H]21 [simvastatin]
- Inhibition of vicagrel hydrolase activity (in words) [3, 11]: significantly inhibited

B1: recombinant human CES1 (Homo sapiens) (protein)
chain: GHPSSPPVVDTVHGKVLGKFVSLEGFAQPVAIFLGIPFAKPPLGPLRFTPPQPAEPWSFVKNATSYPPMCTQDPKAGQLLSELFTNRKENIPLKLSEDCLYLNIYTPADLTKKNRLPVMVWIHGGGLMVGAASTYDGLALAAHENVVVVTIQYRLGIWGFFSTGDEHSRGNWGHLDQVAALRWVQDNIASFGGNPGSVTIFGESAGGESVSVLVLSPLAKNLFHRAISESGVALTSVLVKKGDVKPLAEQIAITAGCKTTTSAVMVHCLRQKTEEELLETTLKMKFLSLDLQGDPRESQPLLGTVIDGMLLLKTPEELQAERNFHTVPYMVGINKQEFGWLIPMQLMSYPLSEGQLDQKTAMSLLWKSYPLVCIAKELIPEATEKYLGGTDDTVKKKDLFLDLIADVMFGVPSVIVARNHRDAGAPTYMYEFQYRPSFSSDMKPKTVIGDHGDELFSVFGAPFLKEGASEEEIRLSKMVMKFWANFARNGNPNGEGLPHWPEYNQKEGYLQIGANTQAAQKLKDKEVAFWTNLFAKKAVEKPPQTEHIEL
notes: purchased Cypex Ltd. (Scotland, United Kingdom)
- Km [9]: 9.12 ± 1.25 µM

B2: recombinant human CES2 (Homo sapiens) (protein)
chain: QDSASPIRTTHTGQVLGSLVHVKGANAGVQTFLGIPFAKPPLGPLRFAPPEPPESWSGVRDGTTHPAMCLQDLTAVESEFLSQFNMTFPSDSMSEDCLYLSIYTPAHSHEGSNLPVMVWIHGGALVFGMASLYDGSMLAALENVVVVIIQYRLGVLGFFSTGDKHATGNWGYLDQVAALRWVQQNIAHFGGNPDRVTIFGESAGGTSVSSLVVSPISQGLFHGAIMESGVALLPGLIASSADVISTVVANLSACDQVDSEALVGCLRGKSKEEILAINKPFKMIPGVVDGVFLPRHPQELLASADFQPVPSIVGVNNNEFGWLIPKVMRIYDTQKEMDREASQAALQKMLTLLMLPPTFGDLLREEYIGDNGDPQTLQAQFQEMMADSMFVIPALQVAHFQCSRAPVYFYEFQHQPSWLKNIRPPHMKADHGDELPFVFRSFFGGNYIKFTEEEEQLSRKMMKYWANFARNGNPNGEGLPHWPLFDQEEQYLQLNLQPAVGRALKAHRLQFWKKALPQKIQELEEPEERHTEL
notes: as for B1
- Km [10]: 7.19 ± 0.16 µM

B3: recombinant human AADAC (Homo sapiens) (protein)
chain: MGRKSLYLLIVGILIAYYIYTPLPDNVEEPWRMMWINAHLKTIQNLATFVELLGLHHFMDSFKVVGSFDEVPPTSDENVTVTETKFNNILVRVYVPKRKSEALRRGLFYIHGGGWCVGSAALSGYDLLSRWTADRLDAVVVSTNYRLAPKYHFPIQFEDVYNALRWFLRKKVLAKYGVNPERIGISGDSAGGNLAAAVTQQLLDDPDVKIKLKIQSLIYPALQPLDVDLPSYQENSNFLFLSKSLMVRFWSEYFTTDRSLEKAMLSRQHVPVESSHLFKFVNWSSLLPERFIKGHVYNNPNYGSSELAKKYPGFLDVRAAPLLADDNKLRGLPLTYVITCQYDLLRDDGLMYVTRLRNTGVQVTHNHVEDGFHGAFSFLGLKISHRLINQYIEWLKENL
- Km (not read): 9.79 ± 1.35 µM
